The record followed here is US11028079B2 (ConverGene LLC, priority 2015, dated 2021).

The target in the experiment is T1, BRD4 bromodomains (Homo sapiens, UniProt O60885).
T1 construct: fused on or other part: T7 phage capsid protein (phage-display fusion; the phage DNA is read out by qPCR)
Description: BROMOscan bromodomain competition binding assay (DiscoveRx). The conditions noted are these: Kd from 11 compound concentrations ranging from 0 to 10 μM, read-out: BROMOscan Relative Activity. An outline of the steps: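 Compounds in 0.1% DMSO/0.9% MEG competed with a solid-phase acetylated peptide for T7 phage-fused BRD4 bromodomains, with the retained bromodomain measured by qPCR.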

On to `Cc1noc(C)c1-c1ccc2nc(N3CCN(CCN(C)C)CC3)nc(NCc3ccc(Cl)cc3)c2c1` [Example 95, N-(4-chlorobenzyl)-2-(4-(2-(dimethylamino)ethyl)piperazin-1-yl)-6-(3,5-dimethylisoxazol-4-yl)quinazolin-4-amine], for which the Kd was 500 to 5000 nM.

In the case of `CNC(=O)CN1CCN(c2nc(NCc3cncc(Cl)c3)c3cc(-c4c(C)noc4C)ccc3n2)CC1` [Example 118, 2-(4-(4-(((5-chloropyridin-3-yl)methyl)amino)-6-(3,5-dimethylisoxazol-4-yl)quinazolin-2-yl)piperazin-1-yl)-N-methylacetamide], the Kd was under 500 nM.

For `Cc1noc(C)c1-c1ccc2nc(N3CCN(CCN(C)C)CC3)nc(Nc3ccc(Cl)cc3)c2c1` [Example 162, N-(4-chlorophenyl)-2-(4-(2-(dimethylamino)ethyl)piperazin-1-yl)-6-(3,5-dimethylisoxazol-4-yl)quinazolin-4-amine], the Kd lay within 500 to 5000 nM.

Turning to `CNC(=O)CN1CCN(c2nc(N3CCOC[C@@H]3c3ccccc3)c3cc(-c4c(C)noc4C)ccc3n2)CC1` [Example 298], the Kd was under 500 nM.

Consider `Cc1noc(C)c1-c1ccc2nc(N3CCN(CCN(C)C)CC3)nc(NC(C)c3cccs3)c2c1` (stereo not shown) [Example 89, 2-(4-(2-(dimethylamino)ethyl)piperazin-1-yl)-6-(3,5-dimethylisoxazol-4-yl)-N-(1-(thiophen-2-yl)ethyl)quinazolin-4-amine], for which the Kd is under 500 nM.

In the case of `Cc1nn(C)cc1CNC(=O)c1nc(NCc2cccc(Cl)c2)c2cc(-c3c(C)noc3C)ccc2n1` [Example 205, 4-((3-chlorobenzyl)amino)-N-((1,3-dimethyl-1H-pyrazol-4-yl)methyl)-6-(3,5-dimethylisoxazol-4-yl)quinazoline-2-carboxamide], the Kd was under 500 nM.

In the case of `Cc1noc(C)c1-c1ccc2nc(-c3csc(CO)c3)nc(N3CCOC[C@@H]3c3ccccc3)c2c1` [Example 325, (S)-(4-(6-(3,5-dimethylisoxazol-4-yl)-4-(3-phenylmorpholino)quinazolin-2-yl)thiophen-2-yl)methanol], the Kd was in the range of 500 to 5000 nM.

With `Cc1noc(C)c1-c1ccc2nc(C(=O)NC3CCS(=O)(=O)CC3)nc(NCc3cccc(Cl)c3)c2c1` [Example 204, 4-((3-chlorobenzyl)amino)-6-(3,5-dimethylisoxazol-4-yl)-N-(1,1-dioxidotetrahydro-2H-thiopyran-4-yl)quinazoline-2-carboxamide], the Kd is under 500 nM.

For the compound `Cc1noc(C)c1-c1ccc2nc(N3CCc4ncn(C)c4C3)nc(N3CCOC[C@@H]3c3ccccc3)c2c1` [Example 311, (S)-4-(6-(3,5-dimethylisoxazol-4-yl)-2-(3-methyl-3,4,6,7-tetrahydro-5H-imidazo[4,5-c]pyridin-5-yl)quinazolin-4-yl)-3-phenylmorpholine], the Kd was under 500 nM.

With `Cc1noc(C)c1-c1ccc2nc(N3CCN(CCCN(C)C)CC3)nc(NCc3cncc(Cl)c3)c2c1` [Example 130, N-((5-chloropyridin-3-yl)methyl)-2-(4-(3-(dimethylamino)propyl)piperazin-1-yl)-6-(3,5-dimethylisoxazol-4-yl)quinazolin-4-amine], the Kd was under 500 nM.

As for `Cc1nc(NCc2cccc(Cl)c2)c2cc(-c3c(C)noc3C)ccc2n1` [Example 9, N-(3-chlorobenzyl)-6-(3,5-dimethylisoxazol-4-yl)-2-methylquinazolin-4-amine], the Kd was under 500 nM.

Regarding `Cc1noc(C)c1-c1ccc2nc(N3CCN(C)CC3)nc(N3CCOC[C@@H]3c3ccccc3)c2c1` [Example 293, (S)-4-(6-(3,5-dimethylisoxazol-4-yl)-2-(4-methylpiperazin-1-yl)quinazolin-4-yl)-3-phenylmorpholine], the Kd was under 500 nM.

On to `CN(C)CCN1CCN(c2nc(NCc3cccc(Cl)c3)c3cc(-c4cnc(O)c(F)c4)ccc3n2)CC1` [Example 86, 5-(4-((3-chlorobenzyl)amino)-2-(4-(2-(dimethylamino)ethyl)piperazin-1-yl)quinazolin-6-yl)-3-fluoropyridin-2-ol], for which the Kd fell in the range of 500 to 5000 nM.

Turning to `Cc1noc(C)c1-c1ccc2nc(C(=O)NC3CS(=O)(=O)C3)nc(NCc3cccc(Cl)c3)c2c1` [Example 271, 4-((3-chlorobenzyl)amino)-6-(3,5-dimethylisoxazol-4-yl)-N-(1,1-dioxidothietan-3-yl)quinazoline-2-carboxamide], the Kd was under 500 nM.

As to `Cc1noc(C)c1-c1ccc2nc(N3CCN(S(C)(=O)=O)CC3)nc(N3CCOC[C@@H]3c3ccccc3)c2c1` [Example 269, (S)-4-(6-(3,5-dimethylisoxazol-4-yl)-2-(4-(methylsulfonyl)piperazin-1-yl)quinazolin-4-yl)-3-phenylmorpholine], the Kd was under 500 nM.

In the case of `Cn1cc(-c2ccc3nc(N4CCN(C(=O)CN)CC4)nc(NCc4cncc(Cl)c4)c3c2)ccc1=O` [Example 133, 5-(2-(4-(2-aminoacetyl)piperazin-1-yl)-4-(((5-chloropyridin-3-yl)methyl)amino)quinazolin-6-yl)-1-methylpyridin-2(1H)-one], the Kd is under 500 nM.

Turning to `Cc1noc(C)c1-c1ccc2nc(-c3cnn(CC(C)(C)O)c3)nc(NCc3cncc(Cl)c3)c2c1` [Example 139, 1-(4-(4-(((5-chloropyridin-3-yl)methyl)amino)-6-(3,5-dimethylisoxazol-4-yl)quinazolin-2-yl)-1H-pyrazol-1-yl)-2-methylpropan-2-ol], the Kd was under 500 nM.

In the case of `Cn1cc(-c2ccc3nc(-c4cnn(CC(C)(C)O)c4)nc(NCc4cccc(Cl)c4)c3c2)ccc1=O` [Example 103, 5-(4-((3-chlorobenzyl)amino)-2-(1-(2-hydroxy-2-methylpropyl)-1H-pyrazol-4-yl)quinazolin-6-yl)-1-methylpyridin-2(1H)-one], the Kd was under 500 nM.

With `Cc1noc(C)c1-c1ccc2nc(C(=O)NC3CN(C)C3)nc(NC3(c4cccc(Cl)c4)CC3)c2c1` [Example 242, 4-((1-(3-chlorophenyl)cyclopropyl)amino)-6-(3,5-dimethylisoxazol-4-yl)-N-(1-methylazetidin-3-yl)quinazoline-2-carboxamide], the Kd is under 500 nM.

For the compound `Cc1noc(C)c1-c1ccc2nc(N3CCN(CC(N)=O)CC3)nc(NCc3cncc(Cl)c3)c2c1` [Example 117, 2-(4-(4-(((5-chloropyridin-3-yl)methyl)amino)-6-(3,5-dimethylisoxazol-4-yl)quinazolin-2-yl)piperazin-1-yl)acetamide], the Kd was under 500 nM.

Turning to `Cc1nn(C)cc1CNC(=O)c1nc(NC2(c3cccc(Cl)c3)CC2)c2cc(-c3c(C)noc3C)ccc2n1` [Example 245, 4-((1-(3-chlorophenyl)cyclopropyl)amino)-N-((1,3-dimethyl-1H-pyrazol-4-yl)methyl)-6-(3,5-dimethylisoxazol-4-yl)quinazoline-2-carboxamide], the Kd is under 500 nM.

For `Cc1noc(C)c1-c1ccc2nc(C(=O)NC3CS(=O)(=O)C3)nc(N3CCOC[C@@H]3c3ccccc3)c2c1` [Example 315, (S)-6-(3,5-dimethylisoxazol-4-yl)-N-(1,1-dioxidothietan-3-yl)-4-(3-phenylmorpholino)quinazoline-2-carboxamide], the Kd was under 500 nM.

In the case of `Cc1noc(C)c1-c1ccc2nc(-c3cnn(CCO)c3)nc(NCc3cccc(Cl)c3)c2c1` [Example 48, 2-(4-(4-((3-chlorobenzyl)amino)-6-(3,5-dimethylisoxazol-4-yl)quinazolin-2-yl)-1H-pyrazol-1-yl)ethanol], the Kd was under 500 nM.

For the compound `Cc1nn(C)cc1CNC(=O)c1nc(NCc2cncc(Cl)c2)c2cc(-c3c(C)noc3C)ccc2n1` [Example 238, 4-(((5-chloropyridin-3-yl)methyl)amino)-N-((1,3-dimethyl-1H-pyrazol-4-yl)methyl)-6-(3,5-dimethylisoxazol-4-yl)quinazoline-2-carboxamide], the Kd is under 500 nM.

Regarding `Cc1nn(C)cc1CNC(=O)c1nc(N2CCOC[C@@H]2c2ccccc2)c2cc(-c3c(C)noc3C)ccc2n1` [Example 281, (S)—N-((1,3-dimethyl-1H-pyrazol-4-yl)methyl)-6-(3,5-dimethylisoxazol-4-yl)-4-(3-phenylmorpholino)quinazoline-2-carboxamide], the Kd is under 500 nM.

Take `CC(=O)N1CCN(c2nc(-c3cnn(CC(C)(C)O)c3)nc3ccc(-c4c(C)noc4C)cc23)[C@@H](c2ccccc2)C1` [Example 309, (S)-1-(4-(6-(3,5-dimethylisoxazol-4-yl)-2-(1-(2-hydroxy-2-methylpropyl)-1H-pyrazol-4-yl)quinazolin-4-yl)-3-phenylpiperazin-1-yl)ethan-1-one]: the Kd is under 500 nM.

For the compound `CNC(=O)Cn1cc(-c2nc(N3CCOC[C@@H]3c3ccccc3)c3cc(-c4c(C)noc4C)ccc3n2)cn1` [Example 272, (S)-2-(4-(6-(3,5-dimethylisoxazol-4-yl)-4-(3-phenylmorpholino)quinazolin-2-yl)-1H-pyrazol-1-yl)-N-methylacetamide], the Kd is under 500 nM.

On to `Cc1noc(C)c1-c1cc(NCc2cccc(Cl)c2)c2cc(Br)ccc2n1` [Example 15, 6-bromo-N-(3-chlorobenzyl)-2-(3,5-dimethylisoxazol-4-yl)quinolin-4-amine], for which the Kd is over 5000 nM.

In the case of `Cc1noc(C)c1-c1ccc2nc(N3CCN(CCN(C)C)CC3)nc(NCc3cccnc3)c2c1` [Example 80, 2-(4-(2-(dimethylamino)ethyl)piperazin-1-yl)-6-(3,5-dimethylisoxazol-4-yl)-N-(pyridin-3-ylmethyl)quinazolin-4-amine], the Kd is under 500 nM.

On to `Cc1cnc(CNC(=O)c2nc(NCc3cccc(Cl)c3)c3cc(-c4c(C)noc4C)ccc3n2)s1` [Example 213, 4-((3-chlorobenzyl)amino)-6-(3,5-dimethylisoxazol-4-yl)-N-((5-methylthiazol-2-yl)methyl)quinazoline-2-carboxamide], for which the Kd was under 500 nM.

As to `CN(C)CCN1CCN(c2nc(NCc3cccc(Cl)c3)c3cc(-c4ccc(O)nc4)ccc3n2)CC1` [Example 67, 5-(4-((3-chlorobenzyl)amino)-2-(4-(2-(dimethylamino)ethyl)piperazin-1-yl)quinazolin-6-yl)pyridin-2-ol], the Kd lay within 500 to 5000 nM.
